In PubChem BioAssay AID248 (DTP/NCI, 2004):
Where “and” joins values, the source holds several entries; their conditions need not be identical. Identical values can stand only once. Inconclusive results and toxic doses are left out. Rule as the data show it: active = T/C of 150% or more; inactive = T/C below 125%.

Tested on: L1210 leukemia ip in BDF1 mice, survival T/C
Assay: NCI In Vivo Anticancer Drug Screen. Data for tumor model L1210 Leukemia (intraperitoneal) in B6D2F1 (BDF1) mice
Details: higher = longer survival
Procedure, shortened: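 Each compound was tested against a transplantable tumor grown in mice. The endpoint was survival, with treated animals benchmarked against vehicle controls as a simple ratio.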

Measured: T/C

CN(C)/N=N/c1nc[nH]c1C(N)=O
inactive: endpoint: mean survival time, dose: 3.12 mg/kg/injection, schedule: Q#A X Z (ip), vehicle: carboxymethylcellulose (CMC) 100 % of control | endpoint: mean survival time, dose: 3.3 mg/kg/injection, schedule: Q01DX009 (ip), vehicle: carboxymethylcellulose (CMC) 104 % of control | endpoint: mean survival time, dose: 6.2 mg/kg/injection, schedule: Q01DX Z (ip), vehicle: saline 106 % of control | endpoint: mean survival time, dose: 6.25 mg/kg/injection, schedule: Q01DX006 (iv), vehicle: carboxymethylcellulose (CMC) 107 % of control | endpoint: mean survival time, dose: 6.25 mg/kg/injection, schedule: Q01DX Z (im), vehicle: carboxymethylcellulose (CMC) 101 % of control | endpoint: mean survival time, dose: 6.25 mg/kg/injection, schedule: Q01DX Z (ip), vehicle: carboxymethylcellulose (CMC) 106 % of control | endpoint: mean survival time, dose: 6.5 mg/kg/injection, schedule: Q01DX009 (ip), vehicle: carboxymethylcellulose (CMC) 100 % of control | endpoint: mean survival time, dose: 7.5 mg/kg/injection, schedule: Q03HX032 (ip), vehicle: carboxymethylcellulose (CMC) 108 % of control | endpoint: mean survival time, dose: 9.0 mg/kg/injection, schedule: Q01DX001 (ip), vehicle: carboxymethylcellulose (CMC) 101 % of control | endpoint: mean survival time, dose: 11.4 mg/kg/injection, schedule: Q03HX032 (ip), vehicle: carboxymethylcellulose (CMC) 106 % of control | endpoint: mean survival time, dose: 12.5 mg/kg/injection, schedule: Q01DX Z (im), vehicle: carboxymethylcellulose (CMC) 106 % of control | endpoint: mean survival time, dose: 12.5 mg/kg/injection, schedule: Q#A X034 (ip), vehicle: carboxymethylcellulose (CMC) 105 % of control | endpoint: mean survival time, dose: 13.0 mg/kg/injection, schedule: Q01DX009 (ip), vehicle: carboxymethylcellulose (CMC) 100 % of control and 102 % of control | endpoint: mean survival time, dose: 15.0 mg/kg/injection, schedule: Q04DX002 (ip), vehicle: carboxymethylcellulose (CMC) 93 % of control and 110 % of control | endpoint: mean survival time, dose: 18.75 mg/kg/injection, schedule: Q01DX001 (ip), vehicle: carboxymethylcellulose (CMC) 107 % of control | endpoint: mean survival time, dose: 23.7 mg/kg/injection, schedule: Q01DX009 (ip), vehicle: carboxymethylcellulose (CMC) 108 % of control | endpoint: mean survival time, dose: 25.0 mg/kg/injection, schedule: Q01DX005 (ip), vehicle: water 110 % of control | endpoint: mean survival time, dose: 25.0 mg/kg/injection, schedule: Q01DX009 (ip), vehicle: Klucel (hydroxypropylcellulose) (HPC) 104 % of control | endpoint: mean survival time, dose: 25.0 mg/kg/injection, schedule: Q04DX003 (ip), vehicle: other 95 % of control and 103 % of control | endpoint: mean survival time, dose: 26.0 mg/kg/injection, schedule: Q03HX032 (ip), vehicle: carboxymethylcellulose (CMC) 111 % of control | endpoint: mean survival time, dose: 29.0 mg/kg/injection, schedule: Q04DX002 (ip), vehicle: carboxymethylcellulose (CMC) 100 % of control | endpoint: mean survival time, dose: 30.0 mg/kg/injection, schedule: Q## X008 (ip), vehicle: other 101 % of control | endpoint: mean survival time, dose: 31.0 mg/kg/injection, schedule: Q01DX001 (ip), vehicle: carboxymethylcellulose (CMC) 103 % of control | endpoint: mean survival time, dose: 32.0 mg/kg/injection, schedule: Q01DX005 (ip), vehicle: water 101 % of control | endpoint: mean survival time, dose: 39.0 mg/kg/injection, schedule: Q01DX009 (ip), vehicle: steriod suspending solution 108 % of control | endpoint: mean survival time, dose: 39.0 mg/kg/injection, schedule: Q01DX Z (ip), vehicle: steriod suspending solution 108 % of control | endpoint: mean survival time, dose: 50.0 mg/kg/injection, schedule: Q01DX001 (ip), vehicle: water 103 % of control | endpoint: mean survival time, dose: 50.0 mg/kg/injection, schedule: Q01DX Z (oral), vehicle: carboxymethylcellulose (CMC) 109 % of control | endpoint: mean survival time, dose: 50.0 mg/kg/injection, schedule: Q02DX009 (ip), vehicle: carboxymethylcellulose (CMC) 103 % of control | endpoint: mean survival time, dose: 50.0 mg/kg/injection, schedule: Q04DX003 (ip), vehicle: Klucel (hydroxypropylcellulose) (HPC) 110 % of control | endpoint: mean survival time, dose: 50.0 mg/kg/injection, schedule: Q04DX003 (ip), vehicle: other 104 % of control and 106 % of control | endpoint: mean survival time, dose: 50.0 mg/kg/injection, schedule: Q04DX003 (ip), vehicle: water 108 % of control | endpoint: mean survival time, dose: 50.0 mg/kg/injection, schedule: Q07DX003 (oral), vehicle: other 100 % of control | endpoint: mean survival time, dose: 50.0 mg/kg/injection, schedule: Q## X003 (ip), vehicle: carboxymethylcellulose (CMC) 105 % of control | endpoint: mean survival time, dose: 58.0 mg/kg/injection, schedule: Q04DX002 (ip), vehicle: carboxymethylcellulose (CMC) 103 % of control | endpoint: mean survival time, dose: 60.0 mg/kg/injection, schedule: Q## X008 (ip), vehicle: other 107 % of control | endpoint: mean survival time, dose: 62.0 mg/kg/injection, schedule: Q01DX001 (ip), vehicle: carboxymethylcellulose (CMC) 106 % of control | endpoint: mean survival time, dose: 65.0 mg/kg/injection, schedule: Q02DX009 (ip), vehicle: steriod suspending solution 106 % of control and 110 % of control | endpoint: mean survival time, dose: 66.0 mg/kg/injection, schedule: Q04DX003 (ip), vehicle: carboxymethylcellulose (CMC) 107 % of control | endpoint: mean survival time, dose: 100.0 mg/kg/injection, schedule: Q01DX001 (ip), vehicle: steriod suspending solution 110 % of control | endpoint: mean survival time, dose: 100.0 mg/kg/injection, schedule: Q01DX001 (ip), vehicle: water 105 % of control | endpoint: mean survival time, dose: 100.0 mg/kg/injection, schedule: Q04DX002 (ip), vehicle: Klucel (hydroxypropylcellulose) (HPC) 105 % of control | endpoint: mean survival time, dose: 100.0 mg/kg/injection, schedule: Q04DX003 (ip), vehicle: water 110 % of control | endpoint: mean survival time, dose: 100.0 mg/kg/injection, schedule: Q07DX003 (oral), vehicle: other 104 % of control | endpoint: mean survival time, dose: 100.0 mg/kg/injection, schedule: Q## X003 (ip), vehicle: carboxymethylcellulose (CMC) 109 % of control | endpoint: mean survival time, dose: 100.0 mg/kg/injection, schedule: Q## X005 (ip), vehicle: carboxymethylcellulose (CMC) 107 % of control | endpoint: mean survival time, dose: 100.0 mg/kg/injection, schedule: Q#A X Z (ip), vehicle: carboxymethylcellulose (CMC) 102 % of control | endpoint: mean survival time, dose: 108.0 mg/kg/injection, schedule: Q02DX009 (ip), vehicle: steriod suspending solution 105 % of control and 107 % of control | endpoint: mean survival time, dose: 125.0 mg/kg/injection, schedule: Q01DX001 (ip), vehicle: carboxymethylcellulose (CMC) 109 % of control | endpoint: mean survival time, dose: 168.0 mg/kg/injection, schedule: Q01DX001 (ip), vehicle: carboxymethylcellulose (CMC) 107 % of control | endpoint: mean survival time, dose: 180.0 mg/kg/injection, schedule: Q02DX009 (ip), vehicle: steriod suspending solution 101 % of control and 104 % of control | endpoint: mean survival time, dose: 200.0 mg/kg/injection, schedule: Q01DX001 (ip), vehicle: water 108 % of control | endpoint: mean survival time, dose: 200.0 mg/kg/injection, schedule: Q01DX006 (iv), vehicle: carboxymethylcellulose (CMC) 102 % of control | endpoint: mean survival time, dose: 264.0 mg/kg/injection, schedule: Q01DX001 (ip), vehicle: other 110 % of control | endpoint: mean survival time, dose: 300.0 mg/kg/injection, schedule: Q01DX009 (ip), vehicle: steriod suspending solution 108 % of control | endpoint: mean survival time, dose: 300.0 mg/kg/injection, schedule: Q01DX Z (ip), vehicle: steriod suspending solution 108 % of control | endpoint: mean survival time, dose: 300.0 mg/kg/injection, schedule: Q03DX Z (ip), vehicle: carboxymethylcellulose (CMC) 103 % of control | endpoint: mean survival time, dose: 336.0 mg/kg/injection, schedule: Q01DX001 (ip), vehicle: carboxymethylcellulose (CMC) 109 % of control | endpoint: mean survival time, dose: 400.0 mg/kg/injection, schedule: Q01DX009 (ip), vehicle: other 106 % of control and 108 % of control | endpoint: mean survival time, dose: 400.0 mg/kg/injection, schedule: Q01DX009 (ip), vehicle: water 102 % of control | endpoint: mean survival time, dose: 400.0 mg/kg/injection, schedule: Q01DX Z (sc), vehicle: carboxymethylcellulose (CMC) 108 % of control | endpoint: mean survival time, dose: 400.0 mg/kg/injection, schedule: Q## X009 (ip), vehicle: carboxymethylcellulose (CMC) 110 % of control | endpoint: mean survival time, dose: 800.0 mg/kg/injection, schedule: Q01DX Z (oral), vehicle: carboxymethylcellulose (CMC) 96 % of control | endpoint: median survival time, dose: 20.0 mg/kg/injection, schedule: Q01DX009 (ip), vehicle: Klucel (hydroxypropylcellulose) (HPC) 106 % of control | endpoint: median survival time, dose: 20.0 mg/kg/injection, schedule: Q01DX015 (ip), vehicle: Klucel (hydroxypropylcellulose) (HPC) 110 % of control | endpoint: median survival time, dose: 65.0 mg/kg/injection, schedule: Q01DX001 (ip), vehicle: steriod suspending solution 100 % of control | endpoint: median survival time, dose: 65.0 mg/kg/injection, schedule: Q01DX009 (ip), vehicle: Klucel (hydroxypropylcellulose) (HPC) 110 % of control | endpoint: median survival time, dose: 65.0 mg/kg/injection, schedule: Q04DX003 (ip), vehicle: steriod suspending solution 110 % of control | endpoint: median survival time, dose: 108.0 mg/kg/injection, schedule: Q01DX001 (ip), vehicle: steriod suspending solution 110 % of control | endpoint: median survival time, dose: 108.0 mg/kg/injection, schedule: Q01DX014 (ip), vehicle: Klucel (hydroxypropylcellulose) (HPC) 94 % of control | endpoint: median survival time, dose: 108.0 mg/kg/injection, schedule: Q04DX003 (ip), vehicle: steriod suspending solution 110 % of control | endpoint: median survival time, dose: 180.0 mg/kg/injection, schedule: Q01DX001 (ip), vehicle: steriod suspending solution 100 % of control | endpoint: median survival time, dose: 180.0 mg/kg/injection, schedule: Q01DX014 (ip), vehicle: Klucel (hydroxypropylcellulose) (HPC) 108 % of control | endpoint: median survival time, dose: 300.0 mg/kg/injection, schedule: Q01DX001 (ip), vehicle: steriod suspending solution 110 % of control | endpoint: median survival time, dose: 300.0 mg/kg/injection, schedule: Q01DX013 (ip), vehicle: Klucel (hydroxypropylcellulose) (HPC) 105 % of control and 107 % of control | endpoint: median survival time, dose: 300.0 mg/kg/injection, schedule: Q01DX014 (ip), vehicle: Klucel (hydroxypropylcellulose) (HPC) 101 % of control | endpoint: median survival time, dose: 400.0 mg/kg/injection, schedule: Q04DX003 (ip), vehicle: Klucel (hydroxypropylcellulose) (HPC) 110 % of control | endpoint: median survival time, dose: 500.0 mg/kg/injection, schedule: Q01DX001 (ip), vehicle: steriod suspending solution 110 % of control | endpoint: median survival time, dose: 500.0 mg/kg/injection, schedule: Q01DX013 (ip), vehicle: Klucel (hydroxypropylcellulose) (HPC) 105 % of control and 107 % of control | endpoint: median survival time, dose: 500.0 mg/kg/injection, schedule: Q01DX014 (ip), vehicle: Klucel (hydroxypropylcellulose) (HPC) 102 % of control | endpoint: median survival time, dose: 833.0 mg/kg/injection, schedule: Q01DX009 (ip), vehicle: Klucel (hydroxypropylcellulose) (HPC) 110 % of control | endpoint: median survival time, dose: 1600.0 mg/kg/injection, schedule: Q04DX003 (ip), vehicle: Klucel (hydroxypropylcellulose) (HPC) 95 % of control
